Experimental findings from BindingDB's records for doi:10.1021/jm00144a035 (1982) are described below.

The assay concerns the target Choline O-acetyltransferase (squid). The assay is described as follows: Inhibition of choline acetyltransferase isolated from squid head ganglia.

One may read the Ki as a dissociation constant, usually derived from enzyme kinetics or from competition with a known ligand. The low end stands for a stronger hold on the target, the high end for a looser hold on the target.

Take `CSSCCNC(=O)CCNC(=O)C(O)C(C)(C)COP(=O)(O)OP(=O)(O)OC[C@H]1O[C@@H](n2cnc3c(N)ncnc32)[C@H](O)[C@@H]1OP(=O)(O)O` (some centres not stated) [Methyldisulfanyl analogue of coenzyme A]: the affinity, expressed as Ki, was 2300 nM. That is a single-digit micromolar value.

For the compound `Nc1c(S(=O)(=O)O)cc(Nc2ccc(Nc3nc(Nc4ccc(S(=O)(=O)O)cc4)nc(=O)[nH]3)c(S(=O)(=O)O)c2)c2c1C(=O)c1ccccc1C2=O` [1-Amino-4-{4-[4-hydroxy-6-(4-sulfo-phenylamino)-[1,3,5]triazin-2-ylamino]-3-sulfo-phenylamino}-9,10-dioxo-9,10-dihydro-anthracene-2-sulfonic acid], the inhibition constant Ki is 1800 nM.
